Source: ChEMBL document CHEMBL1130866, “Conodiparines A-D, new bisindoles from Tabernaemontana. Reversal of vincristine-resistance with cultured cells” (Bioorg Med Chem Lett, 1998)
In brackets after ≈: the same amount, converted by molar mass.

Legend:
Assay type in all cases: functional, cell-based
KB [1] = test: Compound was evaluated for its cytotoxicity against vincristine-sensitive KB/S human oral epidermoid carcinoma cell lines.
KB [2] = test: Compound was evaluated for its cytotoxicity against vincristine-resistant KB/VJ300 human oral epidermoid carcinoma cell lines.
KB [3] = test: Compound was evaluated for its cytotoxicity against vincristine-resistant KB/VJ300 human oral epidermoid carcinoma cell lines, with added vincristine 0.25 ug/mL.

SMILES | IC50 (KB [1]) [µg/mL] | IC50 (KB [2]) [µg/mL] | IC50 (KB [3]) [µg/mL]
C/C=C1/CN(C)[C@H]2Cc3c([nH]c4ccccc34)[C@@H](c3c(OC)ccc4c5c([nH]c34)[C@]3(C(=O)OC)C[C@@H]4C[C@H]([C@H](C)O)C3N(CC5)C4)C[C@H]1[C@]2(CO)C(=O)OC | 20.8 (≈ 27.7 µM) | 15 (≈ 20 µM) | 2.45 (≈ 3.26 µM)
C/C=C1/CN(C)[C@H]2Cc3c([nH]c4ccccc34)[C@@H](c3c(OC)ccc4c5c([nH]c34)[C@]3(C(=O)OC)C[C@@H]4C[C@H](C(C)=O)C3N(CC5)C4)C[C@H]1[C@]2(CO)C(=O)OC | 18.6 (≈ 24.8 µM) | 13.6 (≈ 18.2 µM) | 4.6 (≈ 6.14 µM)
C/C=C1\CN(C)[C@H]2Cc3c([nH]c4ccccc34)[C@@H](c3cc4c5c([nH]c4cc3OC)[C@]3(C(=O)OC)C[C@@H]4C[C@H]([C@H](C)O)C3N(CC5)C4)C[C@H]1[C@]2(CO)C(=O)OC | 19.2 (≈ 25.6 µM) | 13.5 (≈ 18 µM) | 1.45 (≈ 1.93 µM)
C/C=C1/CN(C)[C@H]2Cc3c([nH]c4ccccc34)[C@@H](c3cc4c5c([nH]c4cc3OC)[C@]3(C(=O)OC)C[C@@H]4C[C@H](C(C)=O)[C@@H]3N(CC5)C4)C[C@H]1[C@]2(CO)C(=O)OC | 21.4 (≈ 28.6 µM) | 17 (≈ 22.7 µM) | 5.6 (≈ 7.48 µM)
CC[C@]1(O)C[C@H]2CN(CCc3c([nH]c4ccccc34)[C@@](C(=O)OC)(c3cc4c(cc3OC)N(C=O)[C@H]3[C@@](O)(C(=O)OC)[C@H](OC(C)=O)[C@]5(CC)C=CCN6CC[C@]43[C@@H]65)C2)C1 [VINCRISTINE] | 0.014 (≈ 0.017 µM) | 1.05 (≈ 1.27 µM) | –
